Source: patent US20260216139A1, “METHOD FOR TREATING NEUROLOGICAL DISEASES THROUGH GLIAL PRUNING REGULATION” (Fred Hutchinson Cancer Center, priority 2022, published 2026)

Tested on: C. elegans
Assay: Effects of exposure to drugs on glial pruning: number of engulfed AFD neuron fragments in AMsh glia
Type: in vivo
Conditions: for suppression of defects, judged by the number of engulfed fragments in glia: pdr-1 single or pdr-1; for number of engulfed fragments of neuron within glia: pdr-1 mutant animals, upon drug exposure
Protocol: C. elegans were cultured as known to one of skill in the art. Bristol N2 strain was used as wild type. For all experiments, animals were raised at 20° C. for at least two generations without starvation, picked as L4 larvae onto fresh plate, and assayed 1 day later unless otherwise noted. For analysis of glial engulfment, animals were crossed to the strain dnals13, an integrated transgene bearing gcy-23: GFP recombineered fosmid outcrossed to Bristol N2 four times. To control environmental variations, worms were raised from egg-lay in a humidity and temperature-controlled environment until imaging. Worms were staged at the L4 stage using vulval anatomy. Day 1 adult animals were staged at the L4 stage and then grown for approximately 24 more hours (unless otherwise stated) in the controlled environment. Worms were imaged and glial engulfment was analyzed as described in the methods below.
Worms were immobilized with 40 mM sodium azide. Images were collected on a Deltavision® Elite RoHS wide-field deconvolution system with Ultimate Focus® (GE), a PlanApo 60×/1.42 NA or OLY 100×/1.40 NA oil-immersion objective, and a DV Elite CMOS Camera. Images of the AFD puncta in the region of the AMsh were taken at 100× using FITC with 100% transmission and 0.0405 ms exposure with a reference image taken at 5% POL in the middle of the sample. For worms expressing an extrachromosomal array tagged with mCherry, images were also taken using an A594 filter with 0.02 ms exposure to ensure expression of the array in the cell of interest. Images were then deconvolved and cropped to 1024×1024 in the area of interest. Next, images were processed using FIJI®. All images were converted to 8-bit and brightness and contrast were set with a minimum of 0 and a maximum of 50. Next, a rectangle is drawn around the region of the AMsh adjacent to, but not including, the AFD cell body and excluding any area along the AFD process. Next, the image is cropped to this region, and the tool “3D Objects Counter” is run with the following settings: threshold=35; size min.=5 max.=7225848; exclude objects side. This number of puncta is then verified by eye and recorded.
Data and statistics were either graphed and analyzed using Prism9 or by using R. Statistical analysis in R was conducted using the open-source data visualization package ggplot2. Data is represented in a boxplot with each point representing the number of puncta engulfed within the cell body of one AMsh glia in a single worm. Dots represent the biological replicate in which the individual worm was imaged unless otherwise specified to represent genotype.
4 mL standard C. elegans nematode growth medium (NGM) was aliquoted into 35 mm Petri dishes and stored at 4 degrees Celsius. Plates were warmed to room temperature and seeded with 100 μL of OP50 and dried overnight. Plates were then spotted with 100 μL of diluted SP600125 (in DMSO), Apocynin (in DMSO), or EHop-016 (in DMSO) for a final concentration of 0.5% or 1% DMSO (as labeled) and a final concentration of the treatment drug of 50 μM (unless otherwise specified). Spot treatment was allowed to dry before L1 staged C. elegans were transferred onto the plate. Worms were then imaged approximately 2 days later. Worms were staged at this time by vulval anatomy, body size, and the presence or absence of eggs. […] At this time, worms were imaged, and glial engulfment levels were analyzed.

SMILES	suppression of defects, judged by the number of engulfed fragments in glia (pink-1 double mutant animals)	number of engulfed fragments of neuron within glia	further results
CCn1c2ccccc2c2cc(Nc3ccnc(NCCCN4CCOCC4)n3)ccc21 (racemic) [EHOP-016]	did not suppress		pruning (pdr-1, pink-1 double mutant animals, 10 μM): increased; pdr-1 defect (pruning) (pdr-1 lesion animals (FIG. 21C right), 10 μM): increased; pruning (wild type animals, 10 μM): increase
COc1cc(C(C)=O)ccc1O (racemic) [Apocynin, acetovanillone]	suppress		
CC(C)C[C@@H](C=O)NC(=O)[C@H](CC(C)C)NC(=O)[C@H](CC(C)C)NC(=O)OCc1ccccc1 (racemic) [MG-132]		reduction	
CO[C@H]1C[C@@H]2CC[C@@H](C)[C@@](O)(O2)C(=O)C(=O)N2CCCC[C@H]2C(=O)O[C@H]([C@H](C)C[C@@H]2CC[C@@H](O)[C@H](OC)C2)CC(=O)[C@H](C)/C=C(\C)[C@@H](O)[C@@H](OC)C(=O)[C@H](C)C[C@H](C)/C=C/C=C/C=C/1C [rapamycin]		no change	
O=[N+]([O-])c1ccc(O)c([N+](=O)[O-])c1 [DNP]		no change	
